One data set deals with other Hsps. The data set can be described thus: Other in vitro HSP modulating effects (Table 3). Format: cell-based, mouse and human. The arrangement: key: +: co-inducing activity; −: silencing activity; 0: with the experimental methods applied no other HSP modulating effects could be identified. The procedure:
(§1) The Hsp co-inducing effect of the compounds on stress response was tested on B16 mouse melanoma and SHSY5Y human neuroblastoma cell lines stably transfected with Hsp promoter probing plasmids. This kind of promoter probing, using the promoter region of a given gene conjugated with fluorescent protein is used as a best and fastest test system for finding drugs which modulate the activity of the gene followed by the given promoter (Wyshocka et al., Mol. Cel. Biochem. 215:153-156, 2000).
(§2) Reporter plasmids, containing the Hsp70 and/or Hsp25 promoter conjugated to either YFP or GFP (yellow or green fluorescent protein), were stably transfected into the cells and the expression of YFP or GFP was followed by flow cytometry. Cells were either kept at 37° C. or exposed to heat shock at 42° C. for 1 hour followed by a 16 hour recovery period at 37° C. in the presence or absence of different concentrations of the test compound. After recovery the expression of YFP or GFP which is in straight correlation with the promoter activity of Hsp70 or Hsp27 genes was followed by measuring the fluorescence intensity of the cells by flow cytometry. Fluorescence intensity is in straight correlation with the amount of fluorescent protein (GFP or YFP) produced under the control of hsp promoter. The mean fluorescence intensity of YFP or GFP produced is shown as “Hsp promoter activity”.
(§3) Cells were homogenously distributed on 6-well plates in 1×10^5 cells/well density. B16-pHsp25-GFP and B16-pHsp70-YFP melanoma cells were grown in RPMI-1640 medium supplemented with 10% Fetal bovine serum (FBS), penicillin (200 units/ml), streptomycin (200 μg/ml) and 2 mM L-Glutamine. For maintaining the SH-SY5Y-pHsp25-GFP and SH-SY5YpHsp70-YFP neuroblastoma cell lines Dulbecco's modified Eagle's medium (DMEM-F-12) containing 10% FBS, 2 mM L-Glutamine, penicillin (200 units/ml), streptomycin (200 μg/ml) and MEM non-essential amino acids were used. Before the treatments both cell lines were incubated at 37° C. in a saturated humidity atmosphere containing 95% air and 5% CO2. After 24 h incubation cells were pretreated with compounds of the invention in four different concentrations (usually in 3; 10; 20 and 50 μM) 30 min before the heat shock at 42° C. for 1 h and then incubated further at 37° C. for 16 h (recovery period). After this procedure cells were trypsinized and suspensed in 500 μl serum-free DMEM-F12 medium. The changes in cells' fluorescence were detected using BD FACSCalibur flow cytometer.
SY-SY5Y and B16 cells were extracted in NP-40 lysis buffer (PBS pH 7.4, 1% protease inhibitor coctail and 1% Triton X-100). The cell extracts were then constantly agitated at 4° C. for 2 h. The cell extracts were centrifuged at 12000×g for 30 min and supernatants were saved. After the protein concentration measurement 15 μg of total protein was separated by sodium dodecyl sulfate-polyacrylamide gel electrophoresis (SDS-PAGE) under reducing conditions according to the method of Laemmli. Proteins were blotted onto PVDF membrane. The blot was incubated overnight at 4° C. in the presence of mouse α-Hsp25, α-Hsp70, α-Hsp60 és α-Hsp90 monoclonal antibodies diluted in PBS. Then, the membrane was washed three times in PBS-0.05% Tween and incubated for 1 h in peroxidase-conjugated anti-mouse IgG antibody diluted 1:50000 in PBS containing 3% non-fat dry milk. The immune complexes were detected with chemo-luminescent substrate of peroxidase according to the supplier's instructions. Images taken from the membranes were analyzed using AlphaEase FC software.

The subject of another data set is Hsp70 promoter. In words: Hsp promoter probing, Hsp70 promoter-YFP reporter, flow cytometry (Table 3). Particulars: heat shock 42° C. 1 h, 16 h recovery; B16 or SHSY5Y reporter cells, cell line per value not stated. Also on record: key: +: co-inducing activity; −: silencing activity; 0: with the experimental methods applied no other HSP modulating effects could be identified. Format: cell-based, mouse and human. The protocol:
as §1
The Hsp encoding genes are transactivated through the binding of HSF to the heat shock element found on the DNA upstream of the Hsp genes, in the so called promoter region. In the absence of heat stress, the heat shock factors are present as monomers. Upon heat stress, however, the heat shock factors form trimers, which are the active components, able to bind to heat shock elements. Once HSF is bound to the heat shock element in the promoter of Hsp genes, the gene following the promoter region is transcriptionally active.
as §2, §3
A general note: A flow cytometer gives signals particle by particle.

Each structure is given as a SMILES string. Counter-ions that a name gives are not always drawn.

The record followed here is patent US10660789B2, “1,4-dihydropyridine derivatives with HSP modulating activity” (Richter Gedeon NYRT., priority 2011, dated 2020).

The term melting point denotes the temperature, or range, at which the solid turns liquid. Molecule `COC(=O)C1=C(C)N(C)C(C)=C(C(=O)OC)C1c1ccc(F)cc1` [Example 2, Dimethyl 1,2,6-trimethyl-4-(4-fluorophenyl)-1,4-dihydropyridine-3,5-dicarboxylate] gave a melting point of 184 to 185 °C. Further, in the data set on other Hsps, the “Other in vitro effects” value stood at 0. In the data set on Hsp70 promoter, the Hsp70 modulation result is on record as “+”.
On the same counts, the results for `COC(=O)C1=C(C)N(C)C(C)=C(C(=O)OC)C1c1ccccc1` [Example 3, Dimethyl 1,2,6-trimethyl-4-phenyl-1,4-dihydropyridine-3,5-dicarboxylate] are 201 to 203 °C, 0 and “+”.
For `COC(=O)C1=C(C)N(C)C(C)=C(C(=O)OC)C1c1cccc(C(F)(F)F)c1` [Example 7, Dimethyl 1,2,6-trimethyl-4-(3-trifluoromethylphenyl)-1,4-dihydropyridine-3,5-dicarboxylate] the same measures were 118 to 119 °C, 0 and “+”.
For `COC(=O)C1=C(C)N(C)C(C)=C(C(=O)OC)C1c1ccccc1C(F)(F)F` [Example 8, Dimethyl 1,2,6-trimethyl-4-(2-trifluoromethylphenyl)-1,4-dihydropyridine-3,5-dicarboxylate] the same measures were 168 to 170 °C, 0 and “+”.
`COC(=O)C1=C(C)N(C)C(C)=C(C(=O)OC)C1c1ccc(-n2ccnc2)cc1` [Example 10, Dimethyl 1,2,6-trimethyl-4-(4-(1-imidazoly)lphenyl)-1,4-dihydropyridine-3,5-dicarboxylate] returned a melting point of 201 to 202 °C. Besides, the “Other in vitro effects” value with other Hsps stood at 0. In addition, the Hsp70 modulation entry with Hsp70 promoter is given as “+”.
`COC(=O)C1=C(C)N(C)C(C)=C(C(=O)OC)C1c1cccnc1` [Example 12, Dimethyl 1,2,6-trimethyl-4-(3-piridyl)-1,4-dihydropyridine-3,5-dicarboxylate] displayed a melting point of 173 to 175 °C. For the same molecule, the “Other in vitro effects” value with other Hsps turned out to be 0. For the same molecule, the Hsp70 modulation result with Hsp70 promoter was “−”.
Consider `COC(=O)C1=C(CCN(C)C)N(C)C(CCN(C)C)=C(C(=O)OC)C1c1cc(F)cc(F)c1` [Example 25, Dimethyl 4-(3,5-Difluorophenyl)-2,6-bis-(2-dimethylaminoethyl)-1-methyl-1,4-dihydropyridine-3,5-dicarboxylate dihydrochloride], for which the “Other in vitro effects” value in the data set with other Hsps is listed as 0. Moreover, in the data set with Hsp70 promoter, the Hsp70 modulation result is reported as “+”.
On to `COC(=O)C1=C(CCN(C)C)N(C)C(CCN2CCCCC2)=C(C(=O)OC)C1c1ccc(C(F)(F)F)cc1` (centres unmarked) [Example 30, Dimethyl 2-(2-dimethylamino-ethyl)-1-methyl-6-(2-piperidin-1-yl-ethyl)-4-(4-trifluoromethylphenyl)-1,4-dihydropyridine-3,5-dicarboxylate dihydrochloride], for which the “Other in vitro effects” value in the data set with other Hsps was determined as 0. Moreover, the Hsp70 modulation entry with Hsp70 promoter is given as “+”.
As to `CCOC(=O)C1=CN(Cc2ccccc2)C=C(C(=O)OCC)C1c1ccccc1` [Example 38, Diethyl 1-benzyl-4-phenyl-1,4-dihydropyridine-3,5-dicarboxylate, reference compound], in the data set with other Hsps, the “Other in vitro effects” value is 0. In addition, in the data set on Hsp70 promoter, the Hsp70 modulation result is on record as “+”.
On the same counts, the results for `COC(=O)C1=C(CCN(C)C)N(C)C(CCN2CCc3cc(OC)c(OC)cc3C2)=C(C(=O)OC)C1c1ccc(C(F)(F)F)cc1` (centres unmarked) [Example 42, Dimethyl 2-[2-(6,7-dimethoxy-1,2,3,4-tetrahydroisoquinolin-2-yl)-ethyl]-6-(2-dimethylamino-ethyl)-1-methyl-4-(4-trifluoromethylphenyl)-1,4-dihydropyridine-3,5-dicarboxylate dihydrochloride] are 0 and “+”.
